In patent US5340800A, “Peptide medicaments for the treatment of disease” (priority 1992, dated 1994):
Like-named read-outs stand apart in the source and are kept apart here. No end group written: not given here.

What was measured:
[1] = tested on: polymorphonuclear leukocyte adhesion to TNF activated endothelial cells; assay type: cell-based, human; conditions: for Average % Change of PMN Adhesion to TNF Activated ECs: average over PMN donors (# donors in parentheses)
Protocol: Leukocyte adherence can be measured using several assays known in the art, and the preferred assay is described by Charo, et al., 1985, Blood, 65:473. Briefly, the assay consists of labelling leukocytes with an appropriate label, incubating them with endothelial cells and determining the number of leukocytes that adhere. Preferably the cells are labelled with a gamma ray emitting isotope and the preferred labels are ^111 Indium-oxide or ^51 chromium.
Leukocytes may be isolated from human donors using standard techniques. This generally consists of isolating blood in a physiologically balanced salt solution containing an appropriate anticoagulant, and separating the leukocytes by an appropriate separation step, preferably on Ficoll-Hypaquegradients. Contaminating erythrocytes can be removed by hypotonic lysis. The resulting leukocytes are suspended in a physiologically buffered solution, pH 7.4. The preferred physiological buffered solution is Hank's balanced salt solution that is calcium and magnesium free.
The isolated leukocytes can then be labelled by incubating them for an appropriate time, generally 15 minutes, with the desired radioisotope at a predetermined concentration. The radiolabelled cells are washed to remove unincorporated label, and then suspended in an appropriate solution to perform the adhesion assay described below.
Endothelial cells can be prepared from a number of sources and by several techniques known in the art. Preferably they are obtained from human umbilical veins using the procedure of Charo et al., above. Generally, endothelial cells are isolated by enzymatic digestion of the umbilical veins using, preferably, collagenase as described by Jaffe, E. A., et al., 1973, J. of Clin. Invest, 52:2745. The cells are grown on an appropriate tissue culture substratum, preferably gelatine-coated surfaces.
The endothelial cells may be grown in a variety of tissue culture media containing appropriate supplements such as an appropriate concentration of fetal calf serum, and other supplements/additives routinely utilized by those skilled in this art that are recognized as being favorable for endothelial cells. The endothelial cells may be passaged with a dilute solution of an appropriate protease, and if desired a metal ion chelator. Preferably a solution consisting of 0.05 to 0.25% trypsin and 0.02% EDTA is used. To ensure that the cells are indeed endothelial cells, they are tested by immunofluorescence for Factor VIII antigen, a known endothelial cell marker.
Leukocyte adherence to endothelial cell monolayers may be determined as follows. Early passage endothelial cells, generally not beyond the fifth passage, are cultured on an appropriate substratum and in a suitable cell culture medium. The culture substratum is preferably pre-coated with an appropriate substance that enhances the adherence of the endothelial cells. Several such substances are known including fibronectin, poly-L-lysine, gelatin and laminin. Fibronectin is preferred. An appropriate culture substratum is a 96 well micro titer plate, and a suitable medium is Medium 199 containing fetal calf serum and other supplements known to be beneficial for the growth and maintenance of endothelial cells that are well known to those skilled in the art. Prior to adding a predetermined number of labelled leukocytes, the endothelial cell monolayer is washed with a physiologically balanced salt solution containing a reduced amount of fetal calf serum, preferably 1%. The preferred solution is RPMI supplemented with 1% fetal calf serum.
The endothelial cell monolayer containing added leukocytes is incubated for a time sufficient to permit maximum adherence of the leukocytes, and preferably this is conducted at 37° C. for 30 minutes in an appropriate cell culture atmosphere. Generally this would consist of growing and incubating the cells for the assay period in 5% CO2, 95% air, and 95% humidity. […]

[2] = tested on: polymorphonuclear leukocyte migration; assay: Chemotaxis of polymorphonuclear leukocytes (trans-well, zymosan-activated human serum); assay type: cell-based; conditions: for inhibition of chemotaxis migration (in words): 10^-4 -10^-5 M
Protocol: The materials and methods for ascertaining the chemotactic inhibitory properties of peptides are generally known in the art, and the preferred procedure is described by Capsoni, et al., 1989, J. of Immunol. Meth., 120:125. Generally, chemotaxis is determined by positioning the leukocytes and a chemotactic substance on opposite sides of a membrane in appropriate culture media. The preferred apparatus for doing a chemotaxis assay is produced by Costar Corporation, Cambridge, Mass., and is termed the trans-well cell culture apparatus. […] If a substance is being tested for inhibitory activity this can be achieved by combining it with the leukocytes or the chemotactic substance.
The procedure of Capsoni, et al., above, was followed with the following modifications. Leukocytes may be isolated and labelled with ^111 Indium as described for the adhesion assay, above. The cells are resuspended after labelling in an appropriate cell culture medium at about 5×10^6 cells/ml. Next, a desired amount of the cell suspension is mixed with a predetermined amount of the peptide(s) to be tested for inhibitory activity, and the mixture added to an appropriate filter device. Three μm-pore membranes are situated in the wells of a 24 trans-well tissue culture plate. The cell/inhibitory peptide mixture is incubated for a short time at 37° C. to acclimate the cells to the membrane surface, and to provide sufficient time for them to settle onto the membrane surface. Next, inserts are set in wells containing cell culture media. The media contains zymosan-activated human serum at about 0.5%. Zymosan activation generates complement-derived chemotactic factors which attract the leukocytes through the pores of the membrane. This media was also prewarmed for an appropriate time prior to addition to the cell culture wells. After a 30 minute incubation period at 37° C., the number of leukocytes that have migrated through the membrane filter, in the presence or absence of CD18 peptides, is readily determined by counting the amount of ^111 Indium present in the media. This may be facilitated by adding an appropriate detergent at an appropriate concentration to the media in the wells prior to removing an aliquot for counting. In this way, the inhibitory activities of the peptide being tested could be determined.
Many of the materials and methods used to test the inhibitory activity of the CD18 peptides on the chemotactic response of the polymorphonuclear leukocytes are similar or identical to those used to perform the adhesion assays described in Example 1. Polymorphonuclear leukocytes were isolated and labelled with ^111 Indium as described before, and the cells were suspended in RPMI 1640 culture medium at a concentration of 5×10^6 /ml. Next, 75 μl of the cell suspension and 25 μl of media containing a desired concentration of a CD18 peptide were added to trans-well inserts, and the mixture was incubated at 37° C. for 10 minutes.
To the bottom wells of the 24-well plate 0.6 ml of media containing 0.5% zymosan-activated human serum was added. This solution was also warmed to 37° C. for 10 minutes prior to use.
Next, the assay was conducted by incubating the trans-well inserts containing the cell suspension with the desired CD18 peptide in the 24-well plates at 37° C. for 30 minutes. Subsequently, the inserts were removed, and 60 μl of a 10% sodium dodecyl sulphate solution was added to the wells of the 24-well plate. The plates were incubated with gentle shaking at room temperature for 15 minutes, and 110 μl aliquots were removed and the amount of ^111 Indium determined using a gamma-counter.

FDYPSVGQLAHKLAENNIQPIFAVT [Peptide 2-24, NH2 --Phe--Asp--Tyr--Pro--Ser--Val--Gly--Gln--Leu--Ala--His--Lys--Leu--Ala--Glu--Asn--Asn--Ile--Gln--Pro--Ile--Phe--Ala--Val--Thr--COOH]
activity on PMN adhesion at 10^-4 M (in words) ([1]; 10^-4 M): show activity
Average % Change of PMN Adhesion to TNF Activated ECs ([1]; 10^-4 M): -79%
Average % Change of PMN Adhesion to TNF Activated ECs ([1]; 10^-6 M): -10%
Average % Change of PMN Adhesion to TNF Activated ECs ([1]; 10^-8 M): -2%
inhibition of chemotaxis migration (in words) [2]: marked inhibition
percent inhibition (-) or enhancement of polymorphonuclear leukocyte migration ([2]; 10^-4 M, donor 195): -48%
percent inhibition (-) or enhancement of polymorphonuclear leukocyte migration ([2]; 10^-4 M, donor 499): -77%
percent inhibition (-) or enhancement of polymorphonuclear leukocyte migration ([2]; 10^-4 M, donor 591): -73%
percent inhibition (-) or enhancement of polymorphonuclear leukocyte migration ([2]; 10^-4 M, donor 593): -89%
percent inhibition (-) or enhancement of polymorphonuclear leukocyte migration ([2]; 10^-5 M, donor 195): -33%
percent inhibition (-) or enhancement of polymorphonuclear leukocyte migration ([2]; 10^-5 M, donor 499): -33%
percent inhibition (-) or enhancement of polymorphonuclear leukocyte migration ([2]; 10^-5 M, donor 591): -9%
percent inhibition (-) or enhancement of polymorphonuclear leukocyte migration ([2]; 10^-5 M, donor 593): -40%
percent inhibition (-) or enhancement of polymorphonuclear leukocyte migration ([2]; 10^-6 M, donor 195): 22%
percent inhibition (-) or enhancement of polymorphonuclear leukocyte migration ([2]; 10^-6 M, donor 499): 0%
percent inhibition (-) or enhancement of polymorphonuclear leukocyte migration ([2]; 10^-6 M, donor 591): -17%
percent inhibition (-) or enhancement of polymorphonuclear leukocyte migration ([2]; 10^-6 M, donor 593): -22%

IPKSAVGELSEDSSNVVHLIKNAYNKLSS [Peptide 3-29, NH2 --Ile--Pro--Lys--Ser--Ala--Val--Gly--Glu--Leu--Ser--Glu--Asp--Ser--Ser--Asn--Val--Val--His--Leu--Ile--Lys--Asn--Ala--Tyr--Asn--Lys--Leu--Ser--Ser--COOH]
activity on PMN adhesion at 10^-4 M (in words) ([1]; 10^-4 M): show activity
Average % Change of PMN Adhesion to TNF Activated ECs ([1]; 10^-4 M): -58%
Average % Change of PMN Adhesion to TNF Activated ECs ([1]; 10^-5 M): +12%
Average % Change of PMN Adhesion to TNF Activated ECs ([1]; 10^-6 M): -5%
Average % Change of PMN Adhesion to TNF Activated ECs ([1]; 10^-7 M): +27%
Average % Change of PMN Adhesion to TNF Activated ECs ([1]; 10^-8 M): -2%
inhibition of chemotaxis migration (in words) [2]: marked inhibition
percent inhibition (-) or enhancement of polymorphonuclear leukocyte migration ([2]; 10^-4 M, donor 195): -7%
percent inhibition (-) or enhancement of polymorphonuclear leukocyte migration ([2]; 10^-4 M, donor 499): -33%
percent inhibition (-) or enhancement of polymorphonuclear leukocyte migration ([2]; 10^-4 M, donor 591): -57%
percent inhibition (-) or enhancement of polymorphonuclear leukocyte migration ([2]; 10^-4 M, donor 593): -85%
percent inhibition (-) or enhancement of polymorphonuclear leukocyte migration ([2]; 10^-5 M, donor 195): 11%
percent inhibition (-) or enhancement of polymorphonuclear leukocyte migration ([2]; 10^-5 M, donor 499): 23%
percent inhibition (-) or enhancement of polymorphonuclear leukocyte migration ([2]; 10^-5 M, donor 591): -6%
percent inhibition (-) or enhancement of polymorphonuclear leukocyte migration ([2]; 10^-5 M, donor 593): -17%
percent inhibition (-) or enhancement of polymorphonuclear leukocyte migration ([2]; 10^-6 M, donor 195): -26%
percent inhibition (-) or enhancement of polymorphonuclear leukocyte migration ([2]; 10^-6 M, donor 499): -10%
percent inhibition (-) or enhancement of polymorphonuclear leukocyte migration ([2]; 10^-6 M, donor 591): 11%
percent inhibition (-) or enhancement of polymorphonuclear leukocyte migration ([2]; 10^-6 M, donor 593): -6%

RIGFGSFVDKTVLPFVNTHPDKLRN [Peptide 6-25, NH2 --Arg--Ile--Gly--Phe--Gly--Ser--Phe--Val--Asp--Lys--Thr--Val--Leu--Pro--Phe--Val--Asn--Thr--His--Pro--Asp--Lys--Leu--Arg--Asn--COOH]
Average % Change of PMN Adhesion to TNF Activated ECs ([1]; 10^-4 M): -13%
Average % Change of PMN Adhesion to TNF Activated ECs ([1]; 10^-6 M): +8%
Average % Change of PMN Adhesion to TNF Activated ECs ([1]; 10^-8 M): +12%
percent inhibition (-) or enhancement of polymorphonuclear leukocyte migration ([2]; 10^-4 M, donor 195): -4%
percent inhibition (-) or enhancement of polymorphonuclear leukocyte migration ([2]; 10^-4 M, donor 499): -3%
percent inhibition (-) or enhancement of polymorphonuclear leukocyte migration ([2]; 10^-4 M, donor 591): -16%
percent inhibition (-) or enhancement of polymorphonuclear leukocyte migration ([2]; 10^-4 M, donor 593): -51%
percent inhibition (-) or enhancement of polymorphonuclear leukocyte migration ([2]; 10^-5 M, donor 195): 11%
percent inhibition (-) or enhancement of polymorphonuclear leukocyte migration ([2]; 10^-5 M, donor 499): -13%
percent inhibition (-) or enhancement of polymorphonuclear leukocyte migration ([2]; 10^-5 M, donor 591): 49%
percent inhibition (-) or enhancement of polymorphonuclear leukocyte migration ([2]; 10^-5 M, donor 593): 26%
percent inhibition (-) or enhancement of polymorphonuclear leukocyte migration ([2]; 10^-6 M, donor 195): -44%
percent inhibition (-) or enhancement of polymorphonuclear leukocyte migration ([2]; 10^-6 M, donor 499): -8%
percent inhibition (-) or enhancement of polymorphonuclear leukocyte migration ([2]; 10^-6 M, donor 591): 49%
percent inhibition (-) or enhancement of polymorphonuclear leukocyte migration ([2]; 10^-6 M, donor 593): 20%

VGKQLISGNLDAPEGGLDAMMQVA [Peptide 5-24, NH2 --Val--Gly--Lys--Gln--Leu--Ile--Ser--Gly--Asn--Leu--Asp--Ala--Pro--Glu--Gly--Gly--Leu--Asp--Ala--Met--Met--Gln--Val--Ala--COOH]
Average % Change of PMN Adhesion to TNF Activated ECs ([1]; 10^-4 M): -17%
Average % Change of PMN Adhesion to TNF Activated ECs ([1]; 10^-6 M): -13%
Average % Change of PMN Adhesion to TNF Activated ECs ([1]; 10^-8 M): -6%
percent inhibition (-) or enhancement of polymorphonuclear leukocyte migration ([2]; 10^-4 M, donor 195): -52%
percent inhibition (-) or enhancement of polymorphonuclear leukocyte migration ([2]; 10^-4 M, donor 499): 0%
percent inhibition (-) or enhancement of polymorphonuclear leukocyte migration ([2]; 10^-4 M, donor 591): 51%
percent inhibition (-) or enhancement of polymorphonuclear leukocyte migration ([2]; 10^-4 M, donor 593): -33%
percent inhibition (-) or enhancement of polymorphonuclear leukocyte migration ([2]; 10^-5 M, donor 195): -56%
percent inhibition (-) or enhancement of polymorphonuclear leukocyte migration ([2]; 10^-5 M, donor 499): -15%
percent inhibition (-) or enhancement of polymorphonuclear leukocyte migration ([2]; 10^-5 M, donor 591): 55%
percent inhibition (-) or enhancement of polymorphonuclear leukocyte migration ([2]; 10^-5 M, donor 593): 12%
percent inhibition (-) or enhancement of polymorphonuclear leukocyte migration ([2]; 10^-6 M, donor 195): -22%
percent inhibition (-) or enhancement of polymorphonuclear leukocyte migration ([2]; 10^-6 M, donor 499): -26%
percent inhibition (-) or enhancement of polymorphonuclear leukocyte migration ([2]; 10^-6 M, donor 591): 52%
percent inhibition (-) or enhancement of polymorphonuclear leukocyte migration ([2]; 10^-6 M, donor 593): -4%
